Structures can show the parent of a compound that is named as a salt. Where two headings read alike, the source gives them in different places.
Legend:
[1] = target: T1, recombinant human 5-HT2A receptor (Homo sapiens, UniProt P28223); assay: Radioligand binding to serotonin receptor 5-HT2A ([3H] Ketanserin, CHO-K1 membranes); settings: 10 µM ligand
T1 construct: expressed in transfected cells; host or cells: CHO-K1
From the text: 9-C. […] J Neurochem. […] Ketanserin is used as positive control.

human 5-HT7 receptor = target: T2, human 5-HT7 receptor (Homo sapiens, UniProt P34969); assay: Radioligand binding to serotonin receptor 5-HT7 ([3H] Lysergic acid diethylamide, CHO membranes); settings: for 5-HT7 % inhibition: 10 µM ligand; for inhibition at 10 µM: read-out: 5-HT7 % inhibition
T2 construct: expressed in transfected cells; host or cells: CHO
T2 sequence (P34969 whole entry): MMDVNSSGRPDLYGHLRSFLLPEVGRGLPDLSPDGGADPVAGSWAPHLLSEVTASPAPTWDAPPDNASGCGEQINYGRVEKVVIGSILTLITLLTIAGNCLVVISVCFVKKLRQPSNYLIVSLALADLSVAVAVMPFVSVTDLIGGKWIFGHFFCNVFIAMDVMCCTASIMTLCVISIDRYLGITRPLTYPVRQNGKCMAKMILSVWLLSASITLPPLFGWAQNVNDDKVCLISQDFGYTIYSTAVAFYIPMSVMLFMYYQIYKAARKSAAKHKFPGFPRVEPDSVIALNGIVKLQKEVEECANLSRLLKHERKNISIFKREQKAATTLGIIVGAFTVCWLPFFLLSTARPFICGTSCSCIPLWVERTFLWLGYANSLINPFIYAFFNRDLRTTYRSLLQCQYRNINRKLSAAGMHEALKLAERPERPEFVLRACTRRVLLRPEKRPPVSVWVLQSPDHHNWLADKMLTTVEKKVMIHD
From the text: For this purpose sDNA of human 5-HT7 receptor is expressed in CHO cells as it was described in [Shen Y, Monsma FJ Jr, Metcalf MA, Jose PA, Hamblin MW, and Sibley DR. […] J. Biol. Chem. 1993, 268, 18200 - 18204]. […] J. Pharmacol. Exp. Ther. 1994, 268:1403-1410]. […] Methiothepin is used as positive control.

[2] = target: T3, serotonin receptor 5-HT1B (Rattus norvegicus, UniProt P28564); assay: Radioligand binding to serotonin receptor 5-HT1B ([125I] cyanopindolol, rat brain cortex membranes); settings: for 5-HT1B % inhibition: 10 µM ligand; for inhibition at 10 µM: read-out: 5-HT1B % inhibition
T3 construct: membrane species are prepared from rat brains (Wistar) by homogenization of species of rat brain-cortices; from tissue; host or cells: rat (Wistar) brain cortex
T3 sequence (P28564 whole entry): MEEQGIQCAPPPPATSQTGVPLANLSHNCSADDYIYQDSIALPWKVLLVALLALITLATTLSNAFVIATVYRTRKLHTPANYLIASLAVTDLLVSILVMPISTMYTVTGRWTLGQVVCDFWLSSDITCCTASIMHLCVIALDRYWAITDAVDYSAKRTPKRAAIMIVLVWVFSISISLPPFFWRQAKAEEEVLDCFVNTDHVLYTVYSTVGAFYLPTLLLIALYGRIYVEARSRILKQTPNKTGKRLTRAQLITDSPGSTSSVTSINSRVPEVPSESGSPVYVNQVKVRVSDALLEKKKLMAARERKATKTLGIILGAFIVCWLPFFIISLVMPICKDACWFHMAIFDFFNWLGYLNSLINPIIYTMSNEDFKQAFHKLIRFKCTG
From the text: Serotonin is used as positive control.

recombinant human 5-HT1A = target: T4, recombinant human 5-HT1A (Homo sapiens, UniProt P08908); assay: Radioligand binding to serotonin receptor 5-HT1A ([3H] 8-OH-DPAT, CHO membranes); settings: for 5-HT1A % inhibition: 10 µM ligand; for inhibition at 10 µM: read-out: 5-HT1A % inhibition
T4 construct: expressed in transfected cells; host or cells: CHO
T4 sequence (P08908 1-422): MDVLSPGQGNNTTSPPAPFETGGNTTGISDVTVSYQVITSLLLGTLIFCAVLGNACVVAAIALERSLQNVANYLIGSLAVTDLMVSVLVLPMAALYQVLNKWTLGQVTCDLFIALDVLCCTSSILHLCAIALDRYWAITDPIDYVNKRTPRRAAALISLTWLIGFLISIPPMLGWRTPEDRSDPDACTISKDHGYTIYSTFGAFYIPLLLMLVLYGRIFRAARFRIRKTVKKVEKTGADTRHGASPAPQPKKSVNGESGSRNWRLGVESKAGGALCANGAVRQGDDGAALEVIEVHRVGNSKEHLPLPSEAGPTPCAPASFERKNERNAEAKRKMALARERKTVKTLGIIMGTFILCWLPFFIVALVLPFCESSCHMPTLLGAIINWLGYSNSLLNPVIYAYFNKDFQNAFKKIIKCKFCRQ
From the text: J Pharmacol Exp Ther. 306(1): 301-309, 2003]. […] Metergoline is used as positive control.

[3] = target: T5, recombinant human 5-HT6 receptor (Homo sapiens, UniProt P50406); assay: Radioligand binding to serotonin receptor 5-HT6 ([3H] Lysergic acid diethylamide, HeLa membranes); settings: for 5-HT6 % inhibition: 10 µM ligand
T5 construct: expressed in transfected cells; host or cells: HeLa
T5 sequence (P50406 whole entry): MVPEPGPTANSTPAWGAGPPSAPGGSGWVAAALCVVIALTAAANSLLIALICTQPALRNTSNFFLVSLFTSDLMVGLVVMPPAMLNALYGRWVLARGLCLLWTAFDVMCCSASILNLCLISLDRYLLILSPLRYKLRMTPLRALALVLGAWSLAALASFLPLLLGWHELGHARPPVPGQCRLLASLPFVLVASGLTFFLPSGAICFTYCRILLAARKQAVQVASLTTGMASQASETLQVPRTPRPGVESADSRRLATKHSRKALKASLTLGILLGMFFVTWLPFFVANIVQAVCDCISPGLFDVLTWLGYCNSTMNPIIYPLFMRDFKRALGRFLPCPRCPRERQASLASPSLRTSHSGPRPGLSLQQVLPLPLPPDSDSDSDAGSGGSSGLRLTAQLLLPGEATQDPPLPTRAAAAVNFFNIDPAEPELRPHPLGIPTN
From the text: Mol Pharmacol. 43:320-327, 1993]. […] Methiothepin is used as positive control.

[4] = target: T6, recombinant human 5-HT2C receptor (Homo sapiens, UniProt P28335); assay: Radioligand binding to serotonin receptor 5-HT2C ([3H] Mesulergine, CHO-K1 membranes)
T6 construct: expressed in transfected cells; host or cells: CHO-K1
T6 sequence (P28335 33-458): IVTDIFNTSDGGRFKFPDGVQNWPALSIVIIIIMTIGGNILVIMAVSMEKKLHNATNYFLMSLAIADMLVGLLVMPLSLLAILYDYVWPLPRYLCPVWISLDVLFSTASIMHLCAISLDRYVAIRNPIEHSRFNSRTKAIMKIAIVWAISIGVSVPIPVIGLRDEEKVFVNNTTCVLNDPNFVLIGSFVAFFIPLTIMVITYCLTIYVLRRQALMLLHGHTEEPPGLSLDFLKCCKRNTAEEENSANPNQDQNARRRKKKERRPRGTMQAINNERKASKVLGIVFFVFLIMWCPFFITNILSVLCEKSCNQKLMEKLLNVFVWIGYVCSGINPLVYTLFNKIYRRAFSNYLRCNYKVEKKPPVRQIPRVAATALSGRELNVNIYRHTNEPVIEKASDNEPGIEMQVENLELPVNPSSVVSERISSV
From the text: J Neurochem. 69: 1449 - 1458, 1997]. […] SB242084 is used as positive control.

[5] = target: T7, recombinant human 5-HT2B receptor (Homo sapiens, UniProt P41595); assay: Radioligand binding to serotonin receptor 5-HT2B ([3H] Lysergic acid diethylamide, CHO-K1 membranes)
T7 construct: expressed in transfected cells; host or cells: CHO-K1
T7 sequence (P41595 whole entry): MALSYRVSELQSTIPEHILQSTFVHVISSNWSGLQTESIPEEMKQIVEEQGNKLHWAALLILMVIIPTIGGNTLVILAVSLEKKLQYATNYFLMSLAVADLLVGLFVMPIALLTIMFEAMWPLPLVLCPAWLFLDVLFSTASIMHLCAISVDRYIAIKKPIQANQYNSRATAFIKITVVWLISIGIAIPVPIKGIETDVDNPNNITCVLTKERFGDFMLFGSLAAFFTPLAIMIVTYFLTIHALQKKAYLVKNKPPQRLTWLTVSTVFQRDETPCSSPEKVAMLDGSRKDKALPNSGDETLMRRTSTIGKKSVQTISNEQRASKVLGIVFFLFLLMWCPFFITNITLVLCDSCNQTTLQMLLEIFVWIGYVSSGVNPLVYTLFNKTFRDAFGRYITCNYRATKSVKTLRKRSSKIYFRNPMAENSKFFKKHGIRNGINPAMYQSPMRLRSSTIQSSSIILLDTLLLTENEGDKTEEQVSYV

[6] = read-out: 5-HT2B % inhibition, 10 µM ligand

T1 sequence (P28223 whole entry): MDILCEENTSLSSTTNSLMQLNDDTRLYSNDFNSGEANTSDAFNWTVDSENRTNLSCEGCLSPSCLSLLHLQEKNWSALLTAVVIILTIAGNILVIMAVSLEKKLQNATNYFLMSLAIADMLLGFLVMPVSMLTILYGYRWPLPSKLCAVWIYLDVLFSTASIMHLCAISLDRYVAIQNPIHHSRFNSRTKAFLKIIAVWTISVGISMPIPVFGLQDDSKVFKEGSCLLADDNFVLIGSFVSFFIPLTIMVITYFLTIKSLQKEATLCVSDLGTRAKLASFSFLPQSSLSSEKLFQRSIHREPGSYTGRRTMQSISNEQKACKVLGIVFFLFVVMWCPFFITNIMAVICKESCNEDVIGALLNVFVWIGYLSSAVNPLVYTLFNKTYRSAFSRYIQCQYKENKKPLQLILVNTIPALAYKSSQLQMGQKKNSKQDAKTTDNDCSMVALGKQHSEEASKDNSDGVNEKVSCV

| Compound | inhibition at 10 µM [1] | inhibition at 10 µM (human 5-HT7 receptor) | inhibition at 10 µM [2] | inhibition at 10 µM ([4]; read-out: 5-HT2C % inhibition) | inhibition at 10 µM ([5]; read-out: 5-HT2B % inhibition) | inhibition at 10 µM (recombinant human 5-HT1A) | inhibition at 10 µM ([3]; read-out: 5-HT6 % inhibition) | further results |
| --- | --- | --- | --- | --- | --- | --- | --- | --- |
| CN1CCc2c(c3cc(F)ccc3n2C#Cc2ccccc2)C1 [1.1(2)] |  |  |  |  |  |  |  | 5-HT2A % inhibition [1]: 99%; 5-HT7 % inhibition (human 5-HT7 receptor): 59%; 5-HT1B % inhibition [2]: 6%; 5-HT1A % inhibition (recombinant human 5-HT1A): 30%; 5-HT6 % inhibition [3]: 95% |
| Cc1ccc2c(c1)c1c(n2C#Cc2ccccc2)CCN(C)C1 [1.1(4)] |  |  |  |  |  |  |  | 5-HT2A % inhibition [1]: 99%; 5-HT7 % inhibition (human 5-HT7 receptor): 93%; 5-HT1B % inhibition [2]: 26%; 5-HT1A % inhibition (recombinant human 5-HT1A): 38%; 5-HT2C % inhibition ([4]; 10 µM ligand): 99%; 5-HT2B % inhibition ([5]; 10 µM ligand): 86%; 5-HT6 % inhibition [3]: 97% |
| CN1CCc2c(c3cc(C(F)(F)F)ccc3n2CCc2ccccc2)C1 [1.1.2(1-7)·HCl, 2-methyl-8-trifluoromethyl-5-phenethyl-1,2,3,4-tetrahydro-1H-pyrido[4,3-b]indole] | 91% | 94% | 13% | 92% | 89% |  |  |  |
| CN1CCc2c(c3cc(F)ccc3n2CC(O)c2ccccc2)C1 (stereo not shown) [1.1.2(1-9)] |  |  |  |  |  |  |  | 5-HT2A % inhibition [1]: 97%; 5-HT7 % inhibition (human 5-HT7 receptor): 84%; 5-HT1B % inhibition [2]: 5%; 5-HT1A % inhibition (recombinant human 5-HT1A): -2%; 5-HT6 % inhibition [3]: 89% |
| Cc1ccc2c(c1)c1c(n2CC(O)c2ccccc2)CCN(C)C1 (stereo not shown) [1.1.2(1-10), 2,8-dimethyl-5-[(2-phenyl-2-hydroxy)ethyl]-1,2,3,4-tetrahydro-1H-pyrido[4,3-b]indole] |  |  |  |  |  |  |  | 5-HT2A % inhibition [1]: 97%; 5-HT7 % inhibition (human 5-HT7 receptor): 96%; 5-HT1B % inhibition [2]: 41%; 5-HT1A % inhibition (recombinant human 5-HT1A): 24%; 5-HT6 % inhibition [3]: 102% |
| COc1ccc(CCn2c3c(c4cc(C)ccc42)CN(C)CC3)cc1 [1.1.2(1-14)·HCl] |  | 100% | 52% | 97% | 97% | 57% | 108% |  |
| Cc1ccc2c(c1)c1c(n2CCc2ccc(F)cc2)CCN(C)C1 [1.1.2(1-16)·HCl] | 99% | 95% | 36% | 99% | 91% | 37% | 103% |  |
| Cc1ccc2c(c1)c1c(n2CCc2ccc(C(F)(F)F)cc2)CCN(C)C1 [1.1.2(1-18)·HCl] | 100% | 103% | 45% | 99% |  | 53% | 94% | inhibition at 10 µM [5, 6]: 87% |
| Cc1ccc2c(c1)c1c(n2CCc2ccccc2)CCCN(C)C1 [1.2.2(1-2)·HCl] | 89% | 97% |  |  |  | 20% |  | inhibition at 10 µM [5, 6]: 84% |
| Cc1ccc(CCn2c3c(c4cc(F)ccc42)CN(C)CCC3)cn1 [1.2.2(4-2)·2HCl] |  |  | 60% |  |  |  |  | inhibition at 1 µM ([4]; read-out: 5-HT2C % inhibition): 78%; inhibition at 1 µM ([3]; read-out: 5-HT6 % inhibition): 84% |
| Cc1ccc2c(c1)c1c(n2CCCc2ccccc2)CCN(C)C1 [1.3.3(2)·HCl] | 99% |  | 31% | 98% | 95% |  | 103% |  |
| CN1CCc2c(c3cc(F)ccc3n2CCCc2ccccc2)C1 [1.3.3(8)·HCl] | 97% | 83% | 12% | 97% | 96% | -4% | 93% |  |
| CN1CCc2c(c3cc(F)ccc3n2Cc2ccccc2)C1 [1.9(3)·HCl] | 97% | 81% | 12% | 100% | 95% |  | 89% |  |
| Cc1ccc2c(c1)c1c(n2Cc2ccccc2)CCCN(C)C1 [1.10(4)·HCl] | 91% | 75% | 31% | 98% | 70% | 19% | 69% |  |
